From PubChem BioAssay (NCI)
Several values for one entry are separate records, joined by “and”; a condition that tells them apart may be missing. Identical values can stand only once.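 All cell lines were grown in 96-well plates and treated with compound for 48 hours. GI50 is the concentration that inhibits growth by half. TGI: total growth inhibition.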

Columns and labels:
Test in all cases: NCI-60 cell line screen, 48 h
[1] = tested on: K-562 leukemia
[2] = tested on: HS 578T breast
[3] = tested on: LOX IMVI melanoma
[4] = tested on: SN12C renal
[5] = tested on: SK-MEL-2 melanoma
[6] = tested on: NCI-H522 lung
[7] = tested on: U251 CNS
[8] = tested on: HCT-15 colon
[9] = tested on: SF-539 CNS
[10] = tested on: SK-MEL-28 melanoma

Row | SMILES | GI50 [1] | TGI [1] | GI50 [2] | TGI [2] | GI50 [3] | TGI [3] | GI50 [4] | TGI [4] | GI50 [5] | TGI [5] | GI50 [6] | TGI [6] | GI50 [7] | TGI [7] | GI50 [8] | TGI [8] | GI50 [9] | TGI [9] | GI50 [10] | TGI [10]
1 | Cc1ccc(C(=O)Nc2ccc(Oc3cc4cnn(C)c4cc3-c3cn[nH]c3)c(F)c2)c(=O)n1-c1ccc(F)cc1 | 5.75 µM | > 100 µM | 7.35 µM | > 100 µM | 2.46 µM | > 100 µM | 3.08 µM | > 100 µM | 18.1 µM | > 100 µM | 32 µM | > 100 µM | 32.9 µM | > 100 µM | 6.1 µM | > 100 µM | 1.37 µM | > 100 µM | 3.54 µM | > 100 µM
2 | Nc1nc(-c2ccccc2)c(CC(=O)O)s1 |  | > 100 µM |  | > 100 µM |  | > 100 µM |  | > 100 µM |  | > 100 µM |  | > 100 µM |  | > 100 µM |  | > 100 µM |  | > 100 µM |  | > 100 µM
3 | COc1ccc([C@@]23Oc4cc(OC)cc(OC)c4[C@]2(O)[C@H](O)[C@H](C(=O)N(C)C)[C@H]3c2ccccc2)cc1 | 0.00334 µM | 25 µM and > 100 µM | 0.0225 µM |  |  | 0.0189 µM and 0.0225 µM | 0.0192 µM | 0.329 µM and 0.0664 µM and 0.186 µM | 0.0225 µM | 0.0938 µM and 0.0112 µM and 0.0709 µM | 0.0179 µM |  | 0.0157 µM |  | 0.015 µM |  |  | 0.00512 µM and 0.0154 µM | 0.0134 µM | 0.0616 µM and 0.0292 µM and 0.0492 µM
4 | O=C(Nc1nc2ccc(S(=O)(=O)Nc3ccc(C4(C(F)(F)F)CC4)cc3)cc2[nH]1)c1cnccn1 |  |  | 2.57 µM | 13.5 µM | 1.62 µM | 20.1 µM | 4.46 µM | 17.6 µM | 3.03 µM | 18.5 µM | 1.07 µM | 14.4 µM | 4.74 µM | 22.5 µM | 0.557 µM | 14.3 µM | 2.35 µM | 10.4 µM | 4.58 µM | 19.2 µM
5 | C/C(=N\NC(=S)N1CCC1)c1ccccn1 | 0.00393 µM | > 100 µM |  | > 100 µM | 0.00525 µM | 15.9 µM | 0.0289 µM | > 100 µM |  | 33.3 µM | 0.00976 µM | > 45.9 µM | 0.00725 µM | > 82.6 µM | 0.00336 µM | 45.4 µM | 0.0629 µM | 5.31 µM |  | > 56 µM
6 | Nc1ncnc2c1c(-c1ccc(Oc3ccccc3)cc1)nn2CC1SSCC1O (centres undefined) | 0.788 µM | 7.39 µM | 5.84 µM | 19.3 µM | 0.335 µM | 4.96 µM | 4.97 µM | 15.2 µM | 0.825 µM | 2.15 µM | 2.62 µM | 9.49 µM | 4.31 µM | 9.66 µM | 3.03 µM | 9.88 µM | 1.05 µM | 8.19 µM | 0.131 µM | 0.92 µM
7 | O=C(CI)NC(=O)NC(=O)NCc1ccccc1 | 1.16 µM | 4.05 µM | 20.9 µM | 72.4 µM | 1.44 µM | 3 µM | 3.5 µM | 14.6 µM | 7.5 µM | 21.6 µM | 1.62 µM | 3.52 µM | 13.6 µM | 27.1 µM | 2.03 µM | 4.94 µM | 1.92 µM | 4 µM | 2.96 µM | 11.3 µM
